Read-outs that look alike come from different tables or passages of the source.

Holding throughout (assay): Greenhouse test, pre-emergence treatment
One assay concerns ABUTH. Format: in vivo, Abutilon theophrasti. The settings on record: Abutilon theophrasti, 480 h. The procedure, abridged:
(§1)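 Seeds were sown in loamy sand with approximately 3.0% humus, then sprayed at once with actives suspended or emulsified in water. Pots were watered, hooded until rooting, held at 10-25° C. or 20-35° C. by species for 2 to 4 weeks, and scored 0 (no damage) to 100 (no emergence/complete destruction).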

The next assay relates to ANTAR. The assay is classed as in vivo. Particulars: Anthemis arvensis, 480 h, 20 DAT, read-out: observed % activity. The procedure, abridged: as §1
Another assay deals with ELEIN. Format: in vivo, Eleusine indica. The text has this: (§2) The culture containers used were plastic flowerpots containing loamy sand with approximately 3.0% of humus as the substrate. The seeds of the test plants were sown separately for each species.
(§3) For the pre-emergence treatment, the active ingredients, which had been suspended or emulsified in water, were applied directly after sowing by means of finely distributing nozzles. The containers were irrigated gently to promote germination and growth and subsequently covered with transparent plastic hoods until the plants had rooted. This cover caused uniform germination of the test plants, unless this had been impaired by the active ingredients.
(§4) Depending on the species, the plants were kept at 10-25° C. or 20-35° C., respectively.
(§5) The test period extended over 2 to 4 weeks. During this time, the plants were tended, and their response to the individual treatments was evaluated.
(§6) Evaluation was carried out using a scale from 0 to 100. 100 means no emergence of the plants, or complete destruction of at least the aerial moieties, and 0 means no damage, or normal course of growth. A moderate herbicidal activity is given at values of at least 60, a good herbicidal activity is given at values of at least 70, and a very good herbicidal activity is given at values of at least 85.
(§7) The respective stated components a and b, and if appropriate, c were formulated as a 10% by weight strength emulsion concentrate and, with addition of the amount of solvent system, introduced into the spray liquor used for applying the active compound.
(§8) In the examples, the solvent used was water.
(§9) In the examples below, using the method of S. R. Colby (1967) “Calculating synergistic and antagonistic responses of herbicide combinations”, Weeds 15, p. 22ff., the value E, which is expected if the activity of the individual active compounds is only additive, was calculated. E=X+Y−(X·Y/100) where • X=percent activity using active compound a at an application rate A; • Y=percent activity using active compound b at an application rate B; • E=expected activity (in %) by a+b at application rates A+B.
(§10) If the value found experimentally is higher than the value E calculated according to Colby, a synergistic effect is present.

The subject of another assay is SIDRH. The assay is classed as in vivo, Sida rhombifolia. The procedure, abridged: as §1
The test system of assay [1] is CENCY. Format: in vivo. The settings on record: 480 h, read-out: observed % activity 20 DAT.
Assay [2] relates to CENCY. Format: in vivo. The settings on record: 480 h, individual, read-out: observed % activity 20 DAT.
Assay [3] relates to DIGSA. Format: in vivo. The settings on record: Digitaria sanguinalis, 480 h, read-out: observed % activity 20 DAT.
Another assay has as its system VIOAR. Format: in vivo, Viola arvensis.
Excerpt: as §2, §3, §4, §5, §6, §7, §8, §9, §10

For another assay, the system named is SORHA. The assay is classed as in vivo, Sorghum halepense. The settings on record: Sorghum halepense, pre-emergence, read-out: observed % activity; for inhibition at 250 g/ha: 250 g ai/ha; for inhibition at 8 g/ha: 8 g ai/ha; for inhibition at 16 g/ha: 16 g ai/ha.
Excerpt: as §2, §3, §4, §5, §6, §7, §8, §9, §10

Assay [4] relates to CENCY. Format: in vivo, Centaurea cyanus.
Assay [5] has as its system ERICA. Format: in vivo, Erigeron canadensis.
Assay [6] concerns ERICA. The assay is classed as in vivo. Particulars: 480 h, 125 g ai/ha, read-out: observed % activity 20 DAT.
For a further assay, the system named is MATIN. The assay is classed as in vivo.
In assay [7] the test system is DIGSA. Format: in vivo, Digitaria sanguinalis. The settings on record: 8 g ai/ha.

Turning to `CC(C)N(C)S(=O)(=O)NC(=O)c1cc(-n2c(=O)cc(C(F)(F)F)n(C)c2=O)c(F)cc1Cl` [Saflufenacil, saflufenacil], the inhibition at 10 g/ha in the assay with ABUTH (10 g ai/ha, 20 DAT, read-out: observed % activity) amounted to 90%; in the assay on ABUTH (10 g ai/ha, read-out: observed % activity 20 DAT), 25%; with ABUTH (ABUTH, individual, use rate 10 g ai/ha, read-out: observed % activity 20 DAT), 25%; in the assay with SIDRH (Sida rhombifolia, pre-emergence, 480 h, 10 g ai/ha, 20 DAT, read-out: observed % activity) it was 90%; in the assay with SIDRH (Sida rhombifolia, pre-emergence, 480 h, SIDRH, pre-emergence, individual, use rate 10 g ai/ha, read-out: observed % activity 20 DAT), 20%; with SIDRH (Sida rhombifolia, pre-emergence, 480 h, pre-emergence, 10 g ai/ha, read-out: observed % activity 20 DAT), 20%. Moreover, the inhibition at 10 g/ha in the assay on CENCY [1] (10 g ai/ha) and in the assay on CENCY [2] (use rate 10 g ai/ha) was 30% each time. Moreover, the inhibition at 5 g/ha with ANTAR (5 g ai/ha) turned out to be 98%; with SIDRH (Sida rhombifolia, pre-emergence, 480 h, 5 g ai/ha, 20 DAT, read-out: observed % activity), 55%; with CENCY [1] (5 g ai/ha), 20%; in the assay with CENCY [2] (use rate 5 g ai/ha), 20%. Moreover, the inhibition at 18 g/ha with ELEIN (Eleusine indica, 480 h, 18 g ai/ha, read-out: observed % activity 20 DAT) was found to be 35%; with DIGSA [3] (18 g ai/ha), 0%. Besides, the inhibition at 36 g/ha in the assay with ELEIN (Eleusine indica, 480 h, 36 g ai/ha, read-out: observed % activity 20 DAT) was found to be 95%; in the assay on DIGSA [3] (36 g ai/ha), 65%.
Consider `CCC(CC)Nc1c([N+](=O)[O-])cc(C)c(C)c1[N+](=O)[O-]` [Pendimethalin, pendimethalin], for which the “observed % activity 20 DAT” value with VIOAR (use rate 500 g ai/ha) worked out at 80%; in the assay on ELEIN (500 g ai/ha) it was 100%; in the assay on CENCY [4] (500 g ai/ha), 25%; in the assay with CENCY [4] (1000 g ai/ha) it was 0%; in the assay with ERICA [5] (500 g ai/ha), 90%; with ERICA [5] (1000 g ai/ha), 90%. In addition, the inhibition at 250 g/ha in the assay on SORHA (480 h, 20 DAT) worked out at 75%. Besides, the inhibition at 500 g/ha in the assay with SORHA (480 h, 500 g ai/ha, 20 DAT) was 85%.
In the case of `CSc1nnc(C(C)(C)C)c(=O)n1N` [metribuzin], the inhibition at 125 g/ha is 98% in the assay with ELEIN (Eleusine indica, 480 h, 125 g ai/ha, read-out: observed % activity 20 DAT); 75% with CENCY [1] (125 g ai/ha); 98% in the assay with ERICA [6]. Also, the inhibition at 250 g/ha in the assay with ELEIN (Eleusine indica, 480 h, 250 g ai/ha, read-out: observed % activity 20 DAT) came out at 98%; in the assay with SORHA (480 h, 20 DAT) it was 45%; in the assay on CENCY [1] (250 g ai/ha), 85%.
For the compound `CC(C)N(C(=O)COc1nnc(C(F)(F)F)s1)c1ccc(F)cc1` [Flufenacet, flufenacet], the “observed % activity 20 DAT” value in the assay with VIOAR (use rate 30 g ai/ha) came out at 0%. For the same compound, in the assay on SORHA (480 h, 40 g ai/ha, 20 DAT), the inhibition at 40 g/ha amounted to 95%.
With `CC1(c2nc(N)nc(Nc3c(F)c(F)cc(F)c3F)n2)CCC1` [compound 8, 6-(1-methylcyclobutyl)-N4-(2,3,5,6-tetrafluorophenyl)-1,3,5-triazine-2,4-diamine], the inhibition at 8 g/ha is 80% with ABUTH (8 g ai/ha, 20 DAT, read-out: observed % activity); 80% in the assay on ANTAR (8 g ai/ha); 65% with SIDRH (Sida rhombifolia, pre-emergence, 480 h, 8 g ai/ha, 20 DAT, read-out: observed % activity); 90% in the assay with SORHA (192 h, 8 DAT); 90% with SORHA (480 h, 20 DAT). In addition, the inhibition at 16 g/ha came out at 70% in the assay with ABUTH (16 g ai/ha, 20 DAT, read-out: observed % activity); 85% in the assay on ANTAR (16 g ai/ha); 85% with SIDRH (Sida rhombifolia, pre-emergence, 480 h, 16 g ai/ha, 20 DAT, read-out: observed % activity); 90% with SORHA (192 h, 8 DAT); 90% with SORHA (480 h, 20 DAT). Also, the observed % activity with SIDRH (8 g ai/ha, 20 DAT) is on record as 80%; with SIDRH (16 g ai/ha, 20 DAT), 80%.
Consider `COCC(C)N(C(=O)CCl)c1c(C)csc1C` (stereo not shown) [Dimethenamid, dimethenamid], for which the inhibition at 31.25 g/ha with VIOAR (Viola arvensis, 480 h, use rate 31.25 g ai/ha, read-out: observed % activity 20 DAT) is 0%. Further, the inhibition at 62.5 g/ha in the assay with VIOAR (Viola arvensis, 480 h, use rate 62.5 g ai/ha, read-out: observed % activity 20 DAT) turned out to be 0%. The inhibition at 125 g/ha in the assay with VIOAR (Viola arvensis, 480 h, use rate 125 g ai/ha, read-out: observed % activity 20 DAT) was determined as 0%. Moreover, the “observed % activity 20 DAT” value was 0% in the assay with VIOAR (use rate 31.25 g ai/ha); 0% in the assay with VIOAR (use rate 62.5 g ai/ha); 0% in the assay on VIOAR (use rate 125 g ai/ha); 70% with SIDRH (pre-emergence, 250 g ai/ha); 70% in the assay with MATIN (use rate 62.5 g ai/ha); 90% with MATIN (use rate 125 g ai/ha). For the same compound, the pest or weed control at 250 g/ha with SIDRH (Sida rhombifolia, 480 h, pre-emergence, 250 g ai/ha, read-out: observed % activity 20 DAT) is 70%.
With `Cn1nc(C(F)(F)F)c(CS(=O)(=O)C2=NOC(C)(C)C2)c1OC(F)F` [Pyroxasulfone, pyroxasulfone], the pest or weed control at 24 g/ha in the assay on ABUTH (24 g ai/ha, read-out: observed % activity 20 DAT) came out at 40%; in the assay on SIDRH (Sida rhombifolia, 480 h, pre-emergence, 24 g ai/ha, read-out: observed % activity 20 DAT) it was 95%. For the same compound, in the assay with SIDRH (Sida rhombifolia, 480 h, pre-emergence, 12 g ai/ha, read-out: observed % activity 20 DAT), the pest or weed control at 12 g/ha was found to be 45%. Further, the “observed % activity 20 DAT” value with SIDRH (pre-emergence, 12 g ai/ha) is 45%; in the assay with CENCY [4] (24 g ai/ha), 15%; in the assay with DIGSA [7] it was 95%. Besides, in the assay with SORHA (480 h, 6 g ai/ha, 20 DAT), the inhibition at 6 g/ha was determined as 75%. The inhibition at 24 g/ha in the assay on SORHA (480 h, 24 g ai/ha, 20 DAT) came out at 98%.
On to `CC(C)(F)c1nc(N)nc(Nc2c(F)c(F)cc(F)c2F)n1` [compound 2, 6-(1-Fluoro-1-methyl-ethyl)-N4-(2,3,5,6-tetrafluorophenyl)-1,3,5-triazine-2,4-diamine], for which the “observed % activity 20 DAT” value in the assay on VIOAR (use rate 2 g ai/ha) was 50%; in the assay with MATIN (use rate 1 g ai/ha) it was 98%.

The values are drawn from patent publication US9999222B2, “Herbicidal combination comprising azines” (BASF SE, priority 2014, dated 2018).
